Results: patent US6042848A, “Enhancement of antimicrobial peptide activity by metal ions” (The Board of Trustees of Southern Illinois University, priority 1997, dated 2000)

Key:
E. coli = assay: Bactericidal assay, E. coli colony count after 30 min incubation with peptide and CuSO4; format: cell-based
Protocol: Bovine TAP was synthesized and purified to a single HPLC peak. Bactericidal assay was carried out by growing wild-type E. coli in tryptic soy broth (TSB) until the OD600 reached 0.2. Cells were then diluted in 50 μl 10 mM NaPO4 buffer, pH 7.4, to 4×10^5 cells/ml. […] Five Al samples were plated on L-agar, and the plates were incubated at 37° C. overnight. Colonies were then counted.

Pseudomonas aeruginosa = assay: Bactericidal assay, Pseudomonas strain from a cystic fibrosis patient, with TAP, NaCl and CuSO4; format: cell-based
Protocol: Bovine TAP of 38 amino acids was chemically synthesized by the method of Duclohier ((1989) Biophys. J. 5:1017-1021), and purified to a single peak by HPLC. Bactericidal assay was carried out by growing a wild-type Pseudomonas strain obtained from a cystic fibrosis patient in TSB until the OD600 reached 0.2. Cells were then diluted in 50 μl 10 mM NaPO4 buffer, pH 7.4, to 4×10^5 cells/ml. […] TAP, varying concentrations of NaCl, and 0.1 mM CuS04 were added, and the mixtures were incubated for 30 minutes at 37° C. Five μl samples were taken and plated on L-agar, and the plates were incubated at 37° C. overnight. Colonies were then counted.

[1] = peptide 10 ug/ml, CuSO4 0 mM, 30 min 37 C
[2] = peptide 10 ug/ml, CuSO4 0.01 mM, 30 min 37 C
[3] = peptide 10 ug/ml, CuSO4 0.1 mM, 30 min 37 C
[4] = NaCl 15 mM, TAP 10 μg/ml, CU 0.1 mM
[5] = NaCl 25 mM, TAP 10 μg/ml, CU 0.1 mM
[6] = NaCl 50 mM, TAP 10 μg/ml, CU 0.1 mM
[7] = NaCl 75 mM, TAP 10 μg/ml, CU 0.1 mM
[8] = NaCl 0 mM, TAP 0 μg/ml, CU 0 mM as printed (second such line)
[9] = NaCl 15 mM, TAP 0 μg/ml, CU 0.1 mM
[10] = NaCl 25 mM, TAP 0 μg/ml, CU 0.1 mM
[11] = NaCl 50 mM, TAP 0 μg/ml, CU 0.1 mM
[12] = NaCl 75 mM, TAP 0 μg/ml, CU 0.1 mM

Tracheal Antimicrobial Peptide (NPVSCVRNKGICVPIRCPGSMKQIGTCVGRAVKCCRKK; UniProt P25068 27-64, looked up) [TAP, airway beta-defensin; bovine TAP of 38 amino acids, chemically synthesized and purified to a single HPLC peak]
% SURVIVAL (E. coli; TAP 1 ug/ml, CuSO4 0 mM): 40%
% SURVIVAL (E. coli; TAP 1 ug/ml, CuSO4 0.01 mM): 8%
% SURVIVAL (E. coli; TAP 1 ug/ml, CuSO4 0.1 mM): 2%
# COLONIES (E. coli; peptide 10 ug/ml, Cu 0 mM): 119
# COLONIES (E. coli; peptide 10 ug/ml, Cu 0.01 mM): 106
# COLONIES (E. coli; peptide 10 ug/ml, Cu 0.1 mM): 32
% SURVIVAL (E. coli; [1]): 9%
% SURVIVAL (E. coli; [2]): 8%
% SURVIVAL (E. coli; [3]): 2%
# COLONIES (Pseudomonas aeruginosa; [4]): 233
% SURVIVAL (Pseudomonas aeruginosa; [4]): 15%
# COLONIES (Pseudomonas aeruginosa; [5]): 89
% SURVIVAL (Pseudomonas aeruginosa; [5]): 6%
# COLONIES (Pseudomonas aeruginosa; [6]): 242
% SURVIVAL (Pseudomonas aeruginosa; [6]): 16%
# COLONIES (Pseudomonas aeruginosa; [7]): 363
% SURVIVAL (Pseudomonas aeruginosa; [7]): 24%
killing of Pseudomonas by the combination of copper ions and TAP versus TAP alone (Pseudomonas aeruginosa; copper 0.1 mM, increasing NaCl concentrations): more effective than TAP alone

magainin
effect of CuSO4 on the antimicrobial activity of the peptide (E. coli; 0.01 to 0.1 mM CuS04): enhanced the antimicrobial activity
# COLONIES (E. coli; peptide 10 ug/ml, Cu 0 mM): 1895
# COLONIES (E. coli; peptide 10 ug/ml, Cu 0.01 mM): 1654
# COLONIES (E. coli; peptide 10 ug/ml, Cu 0.1 mM): 975
% SURVIVAL (E. coli; [1]): 80%
% SURVIVAL (E. coli; [2]): 70%
% SURVIVAL (E. coli; [3]): 41%

O=S(=O)([O-])[O-].[Cu+2] [CuSO4, copper sulfate (cupric sulfate)]
% SURVIVAL (E. coli; No Peptide, CuSO4 0.01 mM): 62%
% SURVIVAL (E. coli; No Peptide, CuSO4 0.1 mM): 22%
% SURVIVAL (E. coli; No Peptide, CuSO4 1 mM): 16%
% SURVIVAL (E. coli; No Peptide, CuSO4 10 mM): 7%
# COLONIES (E. coli; No Peptides, CuSO4 0.01 mM): 1776
# COLONIES (E. coli; No Peptides, CuSO4 0.1 mM): 640
# COLONIES (E. coli; No Peptides, CuSO4 1 mM): 443
# COLONIES (E. coli; No Peptides, CuSO4 10 mM): 211
# COLONIES (Pseudomonas aeruginosa; [8]): 534
% SURVIVAL (Pseudomonas aeruginosa; [8]): 35%
# COLONIES (Pseudomonas aeruginosa; [9]): 580
% SURVIVAL (Pseudomonas aeruginosa; [9]): 39%
# COLONIES (Pseudomonas aeruginosa; [10]): 513
% SURVIVAL (Pseudomonas aeruginosa; [10]): 34%
# COLONIES (Pseudomonas aeruginosa; [11]): 696
% SURVIVAL (Pseudomonas aeruginosa; [11]): 46%
# COLONIES (Pseudomonas aeruginosa; [12]): 796
% SURVIVAL (Pseudomonas aeruginosa; [12]): 53%
